Columns and labels:
wild-type (WT) ELIC = assay: FlexStation membrane potential dye assay, GABA-elicited responses; format: cell-based, D. didantii; settings: HEK293 cells transfected with WT ELIC
Description: (§1) These methods were similar to those previously described ([55]). Briefly, ELIC cDNA was transfected into HEK293 cells, and these were then grown for 2 to 3 days in a 96-well plate. Then blue fluorescent membrane potential dye (Molecular Devices Ltd) diluted in Flex buffer (10 mM HEPES, 115 mM NaCl, 1 mM KCl, 1 mM CaCl2, 1 mM MgCl2, 10 mM glucose, pH 7.4) was added to each well. After incubation at 37 °C for 30 min, plates were placed in a FlexStation (Molecular Devices Ltd) and fluorescence measured every 2 s for 120 s. […] Concentration–response data were fitted to the four-parameter logistic equation, F = Fmin + (Fmax − Fmin)/(1 + 10^log(EC50-[A])∗^nH), where [A] is the concentration of agonist, nH is the Hill coefficient, and Fmax and Fmin are the maximal and minimal fluorescence levels for each dataset, using Prism software (GraphPad). WT and mutant responses were compared using an ANOVA test followed by Dunnett’s multiple comparison test.

ELIC W206A = target: T1, ELIC W206A (Dickeya chrysanthemi, UniProt P0C7B7, INS163G/W205A); assay: as above; format: cell-based, D. didantii; settings: HEK293 cells, up to 100 mM GABA
T1 construct: expressed in transfected cells; host or cells: HEK293
Description: as §1

ELIC W206F = target: T2, ELIC W206F (Dickeya chrysanthemi, UniProt P0C7B7, INS163G/W205F); assay: as above; format: cell-based, D. didantii; settings: HEK293 cells, n = 4
T2 construct: expressed in transfected cells; host or cells: HEK293
Description: as §1

ELIC W206Y = assay: as above; format: cell-based, D. didantii; settings: HEK293 cells
Description: as §1

[1] = tested on: α1β2 εF260E mutant GABAAR; assay: Two electrode voltage clamp recordings from Xenopus oocytes; format: cell-based, human; settings: ε F260E compared with WT
Description: Mutations were engineered with a QuikChange strategy and confirmed by sequencing. For functional expression of GABAAR containing an ε subunit, the mRNAs encoding for the human α1 (NP_000797.2), β2 (NP_068711.1) and ε subunits were mixed in a 1:1:0.1 ratio in nuclease-free distilled water at a concentration of 0.4 μg/μl (n.b. the definitive stoichiometry of the expressed receptors was not determined). […] Injection of 2 ng of mRNA per oocyte was done using the automated injection system Roboinject (Multi Channel Systems). Oocytes were incubated at 18 °C for 2 to 5 days prior to conducting the electrophysiological recordings using the two electrode automated voltage clamp system (HiClamp apparatus, Multi Channel Systems). […] Data acquired with the HiClamp were analyzed using the manufacturer’s software (Multi Channel Systems). Concentration–activation curves were fitted with the empirical Hill equation. Data are presented as the mean ± standard deviation (SD). Statistical comparison between WT and mutants was done with an unpaired, two-tailed t test with Welch’s correction for unequal sample size and variance.

[2] = tested on: ELIC with fluorinated Trp at W206; assay: Two-electrode voltage clamp of oocytes, noncanonical fluorinated Trp (FW, F2W, F3W) at position 206; format: cell-based, D. didantii; settings: F3W at position 206, compared with WT
Description: Site-directed mutagenesis was performed using the QuikChange strategy (Stratagene) using ELIC in pGEM-HE. Mutations were confirmed by sequencing. For noncanonical amino acid mutants, the site of interest was mutated to the TAG stop codon. Plasmids were linearized and receptor mRNA prepared by in vitro runoff transcription using the Ambion T7 mMessage mMachine kit. Noncanonical amino acids ligated to tRNA were prepared as previously described ([56]).
Stage V-VI oocytes of Xenopus laevis were harvested and injected with mRNAs as described previously. For experiments with WT channels and conventional mutants, each cell received a single injection of 10 to 25 ng of receptor mRNA approximately 24 h before recording. For nonsense suppression experiments, each cell was injected with 50 to 100 ng each of receptor mRNA and appropriate tRNA approximately 48 h before recording. Injection volumes for each injection session were 50 to 100 nl per cell.
Two-electrode voltage clamping of Xenopus oocytes was performed using an OpusXpress system (Axon Instruments, Inc). All experiments were performed at 22 to 25 °C. […] The holding potential was −60 mV unless otherwise specified. Concentration–response curves and parameters were obtained using Prism software (GraphPad, PRISM).

Question: Which results are given for `NCCCC(=O)O` [GABA]?
Answer: Hill coefficient (wild-type (WT) ELIC): 2.2 ± 1.4; GABA-elicited response (ELIC W206A): no response; EC50 (ELIC W206F): 2000 µM; pEC50 (ELIC W206F): 2.694 ± 0.08; maximal response (ELIC W206Y): ~60 % of WT; decrease of apparent GABA affinity [1]: threefold; change of EC50-values [2]: increased EC50-values
